{"source": "patent US6767890B1", "about": "“Peptides having anti-cancer and anti-inflammatory activity” (priority 1998, dated 2004)", "key": {"galanin receptor": {"system": "galanin receptor", "experiment": "Galanin Agonism/Antagonism, rat ileum", "assay_type": "cell-based", "details": "Peptide 30 μM", "description": "(§1) For in vivo assay, distilled water and saline was used as vehicle in oral and intraperitoneal administration, respectively. Dosing volume was 20 ml/kg for mice or 10 ml/kg for rats.\nA segment of ileum obtained from Wistar derived male or female rats weighing 275±25 gms and sacrificed by CO2 overexposure was used. The tissue was placed under 1 g tension in a 10 ml bath containing Kreb's solution pH 7.4 at 32° C. Test substance (30 μM)-induced contraction 50 percent or more (≧50%) within 5 minutes, relative to control 0.1 μM galanin response, indicated possible galanin receptor agonist activity. Atha test substance concentration where no significant agonist activity was seen, ability to reduce the galanin-induced contractile response […] or more (≧50%) indicated galanin receptor antagonist activity. Each concentration was tested on two separate preparations."}, "[1]": {"system": "ovalbumin-induced bronchoconstriction", "experiment": "Pulmonary, Histamine H3 (ovalbumin-induced bronchoconstriction)", "assay_type": "in vivo, guinea pig", "details": "Peptide PO 10 mg/kg, R-α-methylhistamine IV 30 mg/kg", "description": "as §1\nA group of Duncan Hartley derived male or female guinea pigs weighing 250±50 gms were anesthetized with pentobarbital sodium (50 mg/kg IP plus an additional 15 mg/kg IP if required) and succinylcholine chloride (2 mg/animal IP) was subsequently administered to prevent spontaneous respiration. Body temperature was maintained at 37° to 38° C. The trachea was cannulated and the guinea pig ventilated with a Harvard rodent respirator in a closed system. Tracheal pressure (TP) was recorded through a side-arm of the cannula connected to a P23ID Statham transducer. Respiratory rate set at 50 strokes/minute with a stroke volume (approximately 1 ml/100 g) sufficient to produce a baseline tracheal pressure of 6 cm H2O. Mean arterial pressure was monitored from a cannulated carotid artery, and heart rate was obtained from chest electrodes arranged for lead II. The jugular vein was cannulated for IV vehicle or drug administration in a volume of 1 ml/kg. Guinea pigs were sensitized with IP injections of ovalbumin 0.5 μg+Al(OH)3 1 mg (0.5 ml/animal) on days 1, and boosted with same dosage of ovalbumin and Al(OH)3 vaccine on day 8; and the animals were ready to be challenged between days 19 and 23 to get a submaximal ovalbumin (50 μg/kg IV)-induced bronchoconstriction, reflected as an increase in tracheal pressure (cm H2O). […]. Test substances were administered PO (10 mg/kg) at 60 minutes before ovalbumin (50 μg/kg IV) challenge in 3 guinea pigs. Tracheal pressure, blood pressure and heart rate were measured immediately before and after ovalbumin challenge."}, "[2]": {"system": "T1, Ca++/Calmodulin Dep. PK II", "T1 construct": "other: 100.0 μM; average of duplicate; negative = stimulation", "experiment": "Ca++/Calmodulin Dep. PK II enzyme assay", "assay_type": "biochemical, rat", "details": "100.0 μM; average of duplicate; negative = stimulation", "description": "The peptide was further screened in vitro in a variety of enzyme and biochemical assays. Methods employed were adapted from the scientific literature to maximize reliability and reproducibility. The primary literature reference for each assay is listed in Table 11 opposite the results for each assay.\n(§2) Results presented in Table 10, “Results,” are the average of duplicate determinations, unless otherwise noted.\nReference compounds were tested concurrently at 5 concentrations as an integral part of each assay to ensure the validity of the results obtained.\nEnzyme assays were performed under conditions described in Table 8, “Experimental Conditions.”. The commercial suppliers and catalog numbers of substrates employed in this study are given in Table 7, “Material Sources.” The name, commercial source, and catalog numbers of concurrent reference compounds (controls) employed in this study are given in Table 9, “Reference Compound Data.” The reaction catalyzed by each enzyme is listed in Table 8, “Experimental Conditions.”\nBiochemical assay results are presented in Table 10, as the percent inhibition of specific binding or activity, and unless noted are the average of duplicate tubes tested at each concentration."}, "[3]": {"molecular_target": "Ca++ Ch.-L, Benzothiazepine (Rattus norvegicus, UniProt P22002)", "sequence (P22002 whole entry)": "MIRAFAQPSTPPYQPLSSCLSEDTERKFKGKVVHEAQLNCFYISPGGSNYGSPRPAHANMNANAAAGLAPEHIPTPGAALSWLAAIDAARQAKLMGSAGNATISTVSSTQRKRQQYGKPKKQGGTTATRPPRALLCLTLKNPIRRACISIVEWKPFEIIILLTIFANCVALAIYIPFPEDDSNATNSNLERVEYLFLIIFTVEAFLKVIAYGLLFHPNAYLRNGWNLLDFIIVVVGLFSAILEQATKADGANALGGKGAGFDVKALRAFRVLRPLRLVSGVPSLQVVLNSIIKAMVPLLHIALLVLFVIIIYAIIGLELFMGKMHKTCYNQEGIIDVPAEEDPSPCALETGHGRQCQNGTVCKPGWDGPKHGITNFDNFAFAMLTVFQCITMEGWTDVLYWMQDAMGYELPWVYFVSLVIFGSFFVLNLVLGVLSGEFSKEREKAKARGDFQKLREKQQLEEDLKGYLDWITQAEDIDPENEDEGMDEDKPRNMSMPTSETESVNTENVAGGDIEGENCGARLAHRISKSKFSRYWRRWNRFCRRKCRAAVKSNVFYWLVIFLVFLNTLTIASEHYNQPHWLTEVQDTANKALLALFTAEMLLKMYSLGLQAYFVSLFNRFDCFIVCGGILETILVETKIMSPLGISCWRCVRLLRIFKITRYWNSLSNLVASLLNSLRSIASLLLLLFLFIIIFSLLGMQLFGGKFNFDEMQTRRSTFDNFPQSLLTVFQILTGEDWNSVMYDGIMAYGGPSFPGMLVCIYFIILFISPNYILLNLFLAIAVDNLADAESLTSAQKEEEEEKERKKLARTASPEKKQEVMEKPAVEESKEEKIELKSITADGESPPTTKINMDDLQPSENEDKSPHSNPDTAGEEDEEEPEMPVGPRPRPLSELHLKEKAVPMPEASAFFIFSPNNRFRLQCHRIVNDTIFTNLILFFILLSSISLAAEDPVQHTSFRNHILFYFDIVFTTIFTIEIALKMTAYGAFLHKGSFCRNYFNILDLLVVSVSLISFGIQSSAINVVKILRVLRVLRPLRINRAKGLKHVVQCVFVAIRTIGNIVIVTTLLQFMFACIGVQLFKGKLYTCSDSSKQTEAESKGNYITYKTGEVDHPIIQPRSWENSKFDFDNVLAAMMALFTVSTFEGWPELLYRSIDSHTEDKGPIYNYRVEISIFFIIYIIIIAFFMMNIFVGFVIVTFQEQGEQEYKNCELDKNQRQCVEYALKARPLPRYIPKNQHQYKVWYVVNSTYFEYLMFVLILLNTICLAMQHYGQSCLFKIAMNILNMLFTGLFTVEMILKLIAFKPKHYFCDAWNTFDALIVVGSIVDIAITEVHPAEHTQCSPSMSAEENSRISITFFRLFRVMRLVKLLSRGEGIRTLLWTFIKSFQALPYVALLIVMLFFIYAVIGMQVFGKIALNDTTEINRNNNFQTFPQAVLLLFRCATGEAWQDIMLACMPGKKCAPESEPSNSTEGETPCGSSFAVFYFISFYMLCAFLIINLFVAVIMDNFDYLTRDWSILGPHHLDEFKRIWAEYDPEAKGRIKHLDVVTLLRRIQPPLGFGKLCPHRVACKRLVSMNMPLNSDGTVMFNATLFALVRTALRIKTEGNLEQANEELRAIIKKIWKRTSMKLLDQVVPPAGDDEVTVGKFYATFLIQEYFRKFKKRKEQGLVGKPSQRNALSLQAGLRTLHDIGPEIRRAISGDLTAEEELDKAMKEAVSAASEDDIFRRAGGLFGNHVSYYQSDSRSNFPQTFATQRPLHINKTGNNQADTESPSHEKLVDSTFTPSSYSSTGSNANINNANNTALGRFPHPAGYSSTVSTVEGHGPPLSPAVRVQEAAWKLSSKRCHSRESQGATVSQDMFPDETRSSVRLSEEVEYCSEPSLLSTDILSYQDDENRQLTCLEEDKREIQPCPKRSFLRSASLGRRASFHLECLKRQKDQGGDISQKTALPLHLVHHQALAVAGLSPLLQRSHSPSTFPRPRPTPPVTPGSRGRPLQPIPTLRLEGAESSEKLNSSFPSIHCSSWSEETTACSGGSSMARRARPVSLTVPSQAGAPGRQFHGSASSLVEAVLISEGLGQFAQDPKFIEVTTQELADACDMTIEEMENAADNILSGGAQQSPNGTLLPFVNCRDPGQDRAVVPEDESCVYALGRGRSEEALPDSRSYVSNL", "experiment": "Ca++ Ch.-L, Benzothiazepine radioligand binding", "details": "10.0 μM; specific binding of [3H]Diltiazem; negative = stimulation", "description": "(§3) The peptide was further screened in vitro in a variety of enzyme and biochemical assays. Methods employed were adapted from the scientific literature to maximize reliability and reproducibility.\nas §2\n(§4) Radioligand binding assays were performed under conditions described in Table 8, “Experimental Conditions.” Radioligands employed in this study are given in Table 8, and commercial sources and catalog numbers of the radioligands are provided in Table 7, “Material Sources.” Unlabeled, blocking ligands employed this study are listed in Table 8, “Experimenal Conditions,” along with the commercial sources and catalog number of the unlabeled ligand. The concurrent reference compound (control) employed in each assay is listed in Table 9, “Reference Compound Data,” along with the commercial supplier and catalog number of the compound. Where receptors have been obtained through recombinant expression techniques, the species from which the cDNA was obtained, and the type of expression system employed (mammalian, insect, bacterial) is also given Table 7.\n(§5) Maximum total binding and nonspecific binding were determined each time each assay was run. Nonspecific binding was defined as the proportion of total binding not displaced by unlabeled ligand specific for the receptor. […]"}, "TNF-α": {"system": "TNF-α", "experiment": "TNF-α radioligand binding", "design": "species or system human", "details": "10.0 μM; specific binding of [125I]TNF-alpha; negative = stimulation", "description": "as §3, §2, §4, §5"}}, "note": "Values joined by “and” are separate entries in the source; they are usually repeats but may differ in a detail not shown here. Equal entries are not always repeated.", "data": [{"substance": "LEU-PRO-PRO-SER-ARG [Peptide]", "values": [{"measurement": "Antagonism, Ave.", "setting": "galanin receptor; average of two preparations", "value": 12, "unit": "%"}, {"measurement": "Agonism, Ave.", "setting": "galanin receptor; average of two preparations, Galanin 0.1 μM", "value": 0, "unit": "%"}, {"measurement": "Agonism", "setting": "galanin receptor; individual preparation, contraction within 5 minutes relative to 0.1 μM galanin response, Galanin 0.1 μM", "value": 0, "unit": "%"}, {"measurement": "Antagonism", "setting": "galanin receptor; individual preparation, reduction of 0.1 μM galanin-induced contractile response", "value": "24% and 0%"}, {"measurement": "Inc. of TP X ± SEM", "setting": "[1]; group mean, N=3", "value": "31.5 ± 2.3", "unit": "cm H2O"}, {"measurement": "Inc. of TP Ind.", "setting": "[1]; individual guinea pig, tracheal pressure after ovalbumin 50 μg/kg IV", "value": "27.5 cm H2O and 35.5 cm H2O and 31.5 cm H2O"}, {"measurement": "% INH.", "setting": "[1]; inhibition of induced bronchoconstriction relative to vehicle", "value": "−6.8", "unit": "%"}, {"measurement": "% Inhibition", "setting": "[2]", "value": 12, "unit": "%"}, {"measurement": "% Inhibition", "setting": "[3]", "value": 18, "unit": "%"}, {"measurement": "% Inhibition", "setting": "TNF-α", "value": "−11", "unit": "%"}]}]}
